Results taken from patent US11275071B2, “Sensor dyes for real-time sensing of metal ions in aqueous environments” (UWM Research Foundation, Inc., priority 2015, dated 2022).
“Also recorded” adds a separate entry of the source. Read-outs that look alike come from different tables or passages of the source. One block for each molecule: values may come before it.

How the values were obtained:
[1] = Protonation states of free QAR, pKA by absorption and ReactLab Equilibria (Example 29); assay type: physicochemical; conditions: free dye
Protocol: QAR has three protonation sites: The heterocyclic nitrogen in the quinoline moiety, and the para-hydroxyl group and the ortho-hydroxyl group in the resorcinol ring. The ortho-hydroxyl group is involved in binding with the metal.
The acid dissociation constants (pKA) and spectral profiles were determined for QAR. […] The data was analyzed using ReactLab Equilibria (JPlus Consulting Pty Ltd, Australia) to determine the resulting pKA values. QAR has three protonation sites, so four species were used for the analysis model. The pKA values were assigned using values from well-known molecules with a similar structure.
Error analysis was performed using the measurement uncertainties (pH meter and probe, temperature, etc.) and the conventional rules of error propagation. […] The total uncertainty was estimated from the error analysis (TABLE 5).

[2] = Formation and dissociation constants of QAR, titration with metal ion standard at pH 8.8; assay type: binding; conditions: for KF / KD: 1:2 complex; for KD: computed from formation constant; for log KF: M^2+ + 2HQAR^− → M(QAR)2^2− + 2H^+; for Kd: read-out: square root over (KD)
Protocol: The formation constants (KF) were determined for QAR and different metals. The relative binding affinities characterized the selectivity of the sensor, i.e. the sensor's preference for binding one metal over another. Also, the corresponding dissociation constants (KD) were computed from the formation constants. This metric yielded the lower performance limit of the sensor that is thermodynamically possible (for a given set of conditions), and it can provide the practical operating range of the sensor.
The absorbance spectra were recorded using a Perkin-Elmer Lambda 650 spectrophotometer while a QAR solution was titrated with a metal ion standard. Scout titrations were performed to obtain an estimate range for the KD. Then, the titration was performed with a sufficiently low initial dye concentration (approximately equal to the KD) for proper determination. Also, measurements were made using 10 cm longpath cuvettes. The increased pathlength compensated for the reduced dye concentration so measurements were made within the instrumental limitations (i.e. absorbance values greater than 0.05 absorbance units).
The dye solution was pH-buffered at such that only one protonated form of the free dye and complex is present. […] At pH 8.8, the following expression describes the metal-dye complex formation where HQAR^− predominates as the free dye and M(QAR)2^2 predominates as the metal complex, and minimal formation of metal hydroxides is expected. M^2++2HQAR^−→M(QAR)2^2−+2H^+
The data was analyzed in ReactLab Equilibria to determine the formation constant using the above model, and initial concentrations of HQAR and the respective metal. This software performs regression with the entire spectrum to calculate the formation constants specified in the model. Analysis was performed several times with different initial “guesses” for parameter values to ensure the algorithm yielded reproducible results.
The corresponding K values were calculated and are shown in the table below where the standard error from regression is given as the uncertainty values. The accuracy of the values is limited for cobalt and copper because the absorbance changes were too steep to properly capture the hyperbolic nature of the curve. And, the experimental conditions could not be adjusted to yield the same level of instrumental sensitivity and accuracy as the other metals. However, a relative comparison of the binding affinities is valid.

[3] = Protonation states of metal-QAR complexes; assay type: physicochemical; conditions: M(QAR)2H2 decomposition under acidic conditions, midpoint of species distribution curve
Protocol: (§1) The dissociation constant under acidic conditions and the pKA for the para-hydroxy group on the metal-QAR complexes was determined. A set of samples containing QAR and a single metal standard, were prepared in a pH buffer containing 2 mM Triton X-100 surfactant. […] The absorption spectrum of each sample was recorded with the Perkin-Elmer Lambda 650 spectrophotometer.
(§2) Analysis was performed in ReactLab Equilibria. The protonation of the para-hydroxy groups was modelled using the first reaction. Here, the pH micro-constants (stepwise protonation of each dye molecule in the complex) could not be resolved, so the two para-hydroxy groups in the complex were treated as both protonated or both deprotonated in the model. The decomposition of the complex under acidic conditions was modelled using the second reaction. M(QAR)2^2−+2H^+→M(QAR)2H2 M(QAR)2H2+2H^+→[…]+2H3QAR^+
The total uncertainty was estimated from the measurements involved in the experiment using rules of conventional error propagation (TABLE 7).

[4] = Response of QAR and PAR to metal ions at pH 7, overall comparison; assay type: binding
Protocol: (§3) The response of QAR to different metal ions was measured to determine its selectivity and compared to another sensor (PAR), which has a similar structure. Samples were prepared with different metal standards at pH 7, and the absorbance spectrum of each sample was recorded (FIG. 6). Also, photographs of the samples are provided below to allow for a visual comparison (FIG. 7).
(§4) The spectra of QAR were compared to the spectrum of the free dyes, and the general response of QAR at pH 7 can be described as follows: […]

[5] = Decomposition of metal-QAR complexes under acidic conditions, overall; assay type: physicochemical
Protocol: as §1, §2
Decomposition of the metal-QAR complexes occurs below pH 3. The dissociation constant is different for each metal. For example, copper has the highest resistance and zinc has the lowest resistance to decomplexation under acidic conditions. Also, this trend [Cu(II)>Co(II)>Ni(II)>Zn(II)] matches the trend in the binding affinities, and the two effects may be related to the specific interactions that occur in the binding of each metal. […]

[6] = Response of QAR and PAR to metal ions at pH 7 (absorbance spectrum, colour); assay type: binding
Protocol: as §3, §4

[7] = accuracy limited, with Co(II) ion
[8] = accuracy limited, with Cu(II) ion

- pKa ([1]; site Quinoline N): 2.42
- pKa ([1]; site o-OH): 13
- pKA ([1]; site p-OH): 6.539
- pKa ([1]; site p-OH): 6.5
- KD [2, 7]: (5.30 ± 0.10) × 10^−14 M^2
- KD [2, 8]: (5.40 ± 1.15) × 10^−17 M^2
- KD ([2]; with Hg(II) ion): (1.03 ± 0.04) × 10^−13 M^2
- KD ([2]; with Ni(II) ion): (2.66 ± 0.06) × 10^−13 M^2
- KD ([2]; with Zn(II) ion): (3.24 ± 0.03) × 10^−13 M^2
- log KF [2, 8]: 16.268 M^−2
- log KF ([2]; with Hg(II) ion): 12.986 M^−2
- log KF ([2]; with Ni(II) ion): 12.575 M^−2
- log KF ([2]; with Zn(II) ion): 12.490 M^−2
- Kd [2, 7]: 230 nM
- Kd [2, 8]: 7.35 nM
- Kd ([2]; with Hg(II) ion): 321 nM
- Kd ([2]; with Ni(II) ion): 516 nM
- Kd ([2]; with Zn(II) ion): 569 nM
- Acidic Dissociation ([3]; Co(II)-QAR complex): 1.593
- Acidic Dissociation ([3]; Cu(II)-QAR complex): 0.635
- Acidic Dissociation ([3]; Ni(II)-QAR complex): 2.455
- Acidic Dissociation ([3]; Zn(II)-QAR complex): 2.558
- binding selectivity compared with PAR [4]: higher binding selectivity
- trend of resistance to decomplexation under acidic conditions [5]: Cu(II)>Co(II)>Ni(II)>Zn(II)
Structure (SMILES): Oc1ccc(N=Nc2cccc3cccnc23)c(O)c1 [QAR, 4-(quinolin-8-yldiazenyl)benzene-1,3-diol]
- KF [2, 7]: (1.86 ± 0.03) × 10^13 M^−2
- KF [2, 8]: (1.85 ± 0.40) × 10^16 M^−2
- KF ([2]; with Hg(II) ion): (9.68 ± 0.45) × 10^12 M^−2
- KF ([2]; with Ni(II) ion): (3.76 ± 0.09) × 10^12 M^−2
- KF ([2]; with Zn(II) ion): (3.09 ± 0.05) × 10^12 M^−2
- spectral sensitivity compared with PAR [4]: higher spectral sensitivity
- response to Al(III) (spectrum compared to free dye, colour of complex) [6]: Weakly Sensitive
- response to Ca(II) (spectrum compared to free dye, colour of complex) [6]: Insensitive; also recorded: did not undergo a spectral change
- response to Cd(II) (spectrum compared to free dye, colour of complex) [6]: Weakly Sensitive
- response to Co(II) (spectrum compared to free dye, colour of complex) [6]: Strongly Sensitive; also recorded: magenta complex
- response to Cr(III) (spectrum compared to free dye, colour of complex) [6]: Insensitive
- response to Cu(II) (spectrum compared to free dye, colour of complex) [6]: Strongly Sensitive; also recorded: orange complex
- response to Fe(III) (spectrum compared to free dye, colour of complex) [6]: Severe aggregation; also recorded: does not appreciably complex; also recorded: Aggregation occurs
- response to Hg(II) (spectrum compared to free dye, colour of complex) [6]: transparent complex
- response to K(I) (spectrum compared to free dye, colour of complex) [6]: Insensitive; also recorded: did not undergo a spectral change
- response to Mg(II) (spectrum compared to free dye, colour of complex) [6]: Insensitive; also recorded: did not undergo a spectral change
- response to Mn(II) (spectrum compared to free dye, colour of complex) [6]: Weakly Sensitive; also recorded: does not appreciably complex
- response to Na(I) (spectrum compared to free dye, colour of complex) [6]: Insensitive; also recorded: did not undergo a spectral change
- response to Ni(II) (spectrum compared to free dye, colour of complex) [6]: Strongly Sensitive; also recorded: orange complex
- response to Pb(II) (spectrum compared to free dye, colour of complex) [6]: Insensitive; also recorded: does not appreciably complex
- response to Sn(II) (spectrum compared to free dye, colour of complex) [6]: Insensitive; also recorded: does not appreciably complex
- response to Zn(II) (spectrum compared to free dye, colour of complex) [6]: Strongly Sensitive; also recorded: orange complex

Structure (SMILES): Oc1ccc(N=Nc2ccccn2)c(O)c1 [PAR, 4-(2-pyridylazo)resorcinol, reference compound]
- response to Ca(II) (spectrum compared to free dye, colour of complex) [6]: did not undergo a spectral change
- response to Cd(II) (spectrum compared to free dye, colour of complex) [6]: orange complexes
- response to Co(II) (spectrum compared to free dye, colour of complex) [6]: magenta complex
- response to Cu(II) (spectrum compared to free dye, colour of complex) [6]: magenta complex
- response to Fe(III) (spectrum compared to free dye, colour of complex) [6]: magenta complex; also recorded: Aggregation occurs
- response to Hg(II) (spectrum compared to free dye, colour of complex) [6]: brown, globular suspension
- response to K(I) (spectrum compared to free dye, colour of complex) [6]: did not undergo a spectral change
- response to Mg(II) (spectrum compared to free dye, colour of complex) [6]: did not undergo a spectral change
- response to Na(I) (spectrum compared to free dye, colour of complex) [6]: did not undergo a spectral change
- response to Ni(II) (spectrum compared to free dye, colour of complex) [6]: orange complexes
- response to Pb(II) (spectrum compared to free dye, colour of complex) [6]: magenta complex
- response to Zn(II) (spectrum compared to free dye, colour of complex) [6]: orange complexes
